Experiments:
Experiment in all cases: NCI-60 screen (SRB)
Type in all cases: cell-based
A498 = settings: Homo sapiens; A498, Renal Cancer
Description: (§1) The human tumor cell lines of the cancer screening panel are grown in RPMI 1640 medium containing 5% fetal bovine serum and 2 mM L-glutamine. For a typical screening experiment, cells are inoculated into 96 well microtiter plates in 100 μL at plating densities ranging from 5,000 to 40,000 cells/well depending on the doubling time of individual cell lines. After cell inoculation, the microtiter plates are incubated at 37° C., 5% CO2, 95% air and 100% relative humidity for 24 h prior to addition of experimental drugs. After 24 h, two plates of each cell line are fixed in situ with TCA, to represent a measurement of the cell population for each cell line at the time of drug addition (Tz). Experimental drugs are solubilized in dimethyl sulfoxide at 400-fold the desired final maximum test concentration and stored frozen prior to use. At the time of drug addition, an aliquot of frozen concentrate is thawed and diluted to twice the desired final maximum test concentration with complete medium containing 50 µg/ml gentamicin. An additional four, 10-fold or M log serial dilutions are made to provide a total of five drug concentrations plus control. Aliquots of 100 μl of these different drug dilutions are added to the appropriate microtiter wells already containing 100 μl of medium, resulting in the required final drug concentrations. Following drug addition, the plates are incubated for an additional 48 h at 37° C., 5% CO2, 95% air, and 100% relative humidity. For adherent cells, the assay is terminated by the addition of cold TCA. Cells are fixed in situ by the gentle addition of 50 μl of cold 50% (w/v) TCA (final concentration, 10% TCA) and incubated for 60 minutes at 4° C. The supernatant is discarded, and the plates are washed five times with tap water and air dried. Sulforhodamine B (SRB) solution (100 l) at 0.4% (w/v) in 1% acetic acid is added to each well, and plates are incubated for 10 minutes at room temperature. After staining, unbound dye is removed by washing five times with 1% acetic acid and the plates are air dried. Bound stain is subsequently solubilized with 10 mM trizma base, and the absorbance is read on an automated plate reader at a wavelength of 515 nm. For suspension cells, the methodology is the same except that the assay is terminated by fixing settled cells at the bottom of the wells by gently adding 50 μl of 80% TCA (final concentration, 16% TCA).

ACHN = settings: Homo sapiens, Renal Cancer
Description: as §1

COLO 205 = settings: Homo sapiens; COLO 205, Colon Cancer
Description: as §1

EKVX = settings: Homo sapiens, Non-Small Cell Lung Cancer
Description: as §1

HCT-15 = settings: Homo sapiens; HCT-15, Colon Cancer
Description: as §1

HOP-62 = settings: Homo sapiens; HOP-62, Non-Small Cell Lung Cancer
Description: as §1

HOP-92 = settings: Homo sapiens; HOP-92, Non-Small Cell Lung Cancer
Description: as §1

HS 578T = settings: Homo sapiens, Breast Cancer
Description: as §1

IGROV1 = settings: Homo sapiens, IGROV-1; IGROV1, Ovarian Cancer
Description: as §1

KM12 = settings: Homo sapiens; KM12, Colon Cancer
Description: as §1

M14 = settings: Homo sapiens; M14, Melanoma
Description: as §1

MALME-3M = settings: Homo sapiens, Melanoma
Description: as §1

MDA-MB-468 = settings: Homo sapiens; MDA-MB-468, Breast Cancer
Description: as §1

NCI-H226 = settings: Homo sapiens; NCI-H226, Non-Small Cell Lung Cancer
Description: as §1

NCI-H322M = settings: Homo sapiens, Non-Small Cell Lung Cancer
Description: as §1

NCI-H522 = settings: Homo sapiens; NCI-H522, Non-Small Cell Lung Cancer
Description: as §1

OVCAR-3 = settings: Homo sapiens; OVCAR-3, Ovarian Cancer
Description: as §1

OVCAR-4 = settings: Homo sapiens; OVCAR-4, Ovarian Cancer
Description: as §1

SF-268 = settings: Homo sapiens; SF-268, CNS Cancer
Description: as §1

SF-295 = settings: Homo sapiens; SF-295, CNS Cancer
Description: as §1

SF-539 = settings: Homo sapiens; SF-539, CNS Cancer
Description: as §1

SK-MEL-2 = settings: Homo sapiens; SK-MEL-2, Melanoma
Description: as §1

SK-MEL-5 = settings: Homo sapiens; SK-MEL-5, Melanoma
Description: as §1

SR = settings: Homo sapiens, Leukemia
Description: as §1

SW-620 = settings: Homo sapiens; SW-620, Colon Cancer
Description: as §1

TK-10 = settings: Homo sapiens; TK-10, Renal Cancer
Description: as §1

U251 = settings: Homo sapiens, U-251; U251, CNS Cancer
Description: as §1

UACC-62 = settings: Homo sapiens; UACC-62, Melanoma
Description: as §1

UO-31 = settings: Homo sapiens; UO-31, Renal Cancer
Description: as §1

| SMILES | GI50 (A498) [µM] | GI50 (ACHN) [µM] | GI50 (COLO 205) [µM] | GI50 (EKVX) [µM] | GI50 (HCT-15) [µM] | GI50 (HOP-62) [µM] | GI50 (HOP-92) [µM] | GI50 (HS 578T) [µM] | GI50 (IGROV1) [µM] | GI50 (KM12) [µM] | GI50 (M14) [µM] | GI50 (MALME-3M) [µM] | GI50 (MDA-MB-468) [µM] | GI50 (NCI-H226) [µM] | GI50 (NCI-H322M) [µM] | GI50 (NCI-H522) [µM] | GI50 (OVCAR-3) [µM] | GI50 (OVCAR-4) [µM] | GI50 (SF-268) [µM] | GI50 (SF-295) [µM] | also measured |
| --- | --- | --- | --- | --- | --- | --- | --- | --- | --- | --- | --- | --- | --- | --- | --- | --- | --- | --- | --- | --- | --- |
| COc1cc2nccc(Oc3ccc(NC(=O)C4(NC(=O)c5ccc(F)cc5)CC4)cc3F)c2cc1OC [Cbo-02, N-(1-((4-((6,7-diMethoxyquinolin-4-yl)oxy)-3-fluorophenyl)carbamoyl)cyclopropyl)-4-fluorobenzamide] | 3.28 | 2.14 | 1.75 | 1.03 | 2.98 | 1.82 | 1.26 | 2.54 | 4.48 | 2 | 1.91 | 1.74 | 1.72 | 1.58 | 3.94 | 2.07 | 2.4 | 2.38 | 4.17 | 2.31 | GI50 (SF-539): 1.69 µM; GI50 (SK-MEL-2): 6.15 µM; GI50 (SK-MEL-5): 4.01 µM; GI50 (SR): 3.33 µM; GI50 (SW-620): 1.63 µM; GI50 (TK-10): 1.83 µM; GI50 (U251): 2.88 µM; GI50 (UACC-62): 1.84 µM; GI50 (UO-31): 2.59 µM |
| COc1cc2nccc(Oc3ccc(NC(=O)C4(NC(=O)c5ccc(F)cc5)CC4)cc3F)c2cc1Oc1ccc(N)cc1F [Cbo-10] | > 100 | 0.683 | 0.931 | 0.488 | 2.41 | 3.48 | 0.141 | 5.32 | 0.714 | 0.13 | 1.49 | 0.313 | 1.73 | 5.29 | 0.518 | 0.45 | > 100 | > 100 | > 100 | 0.304 | GI50 (SF-539): > 100 µM; GI50 (SK-MEL-2): > 100 µM; GI50 (SK-MEL-5): 6.97 µM; GI50 (SR): 0.345 µM; GI50 (SW-620): 0.661 µM; GI50 (TK-10): 0.455 µM; GI50 (U251): > 100 µM; GI50 (UACC-62): 0.915 µM; GI50 (UO-31): 1.81 µM |
| COc1cc2nccc(Oc3ccc(NC(=O)C4(C(=O)Nc5ccc(F)cc5)CC4)cc3F)c2cc1Oc1ccc(N)cc1F [Cbo-23] | 0.459 | 0.292 | 0.283 | 0.389 | 0.315 | 1.2 | < 0.01 | 0.148 | 0.264 | < 0.01 | 0.459 | 0.298 | 1.12 | 0.276 | 0.444 | 0.33 | 0.829 | 2.58 | 1.35 | 0.0669 | GI50 (SF-539): 0.179 µM; GI50 (SK-MEL-2): 1.36 µM; GI50 (SK-MEL-5): 1.38 µM; GI50 (SR): 0.0938 µM; GI50 (SW-620): 0.449 µM; GI50 (TK-10): 0.224 µM; GI50 (U251): 2.38 µM; GI50 (UACC-62): 0.112 µM; GI50 (UO-31): 0.316 µM |
